Test results as given in patent US7700375B2, “Fluorescent labeling of specific protein targets in vitro and in vivo” (Valorisation-Recherche, LP, priority 2004, dated 2010).

What was measured:
[1] = Fluorescence spectral properties of fluorogens and their ethanethiol adducts; format: physicochemical; conditions: for φ (quantum yield): rapid approximation method of reference 34
Procedure: For the application of this fluorogenic reaction to the detection of thiols and dithiols, two important criteria are the fluorescence intensity of the thiol addition product and the ratio of its fluorescence compared to its parent fluorogen. We studied the effect of electron withdrawing and donating substituants on these criteria by preparing the derivatives of fluorogen 4 shown in Scheme 1. Fluorogen 5, bearing an electron withdrawing ester group, was prepared according to a protocol similar to that used for fluorogen 4, but using an ester-substituted maleic anhydride derived by oxidation of dimethyl L-tartrate according to a published procedure.^31 Fluorogen 6 bears an electron donating methyl group and was obtained in similar yield by adaptation of the standard literature protocol,^25 using citraconic anhydride. The reaction of 5 and 6 with ethanethiol in DMSO led to the formation of thiol adducts 8 and 9, whose fluorescence was characterized as shown in Table 1. Even from this small series, certain tendencies are apparent. Increasing the electron donating capacity of the substituent appears to have a significant effect on the absorbance maximum corresponding to the wavelength of excitation, increasing by 37 nm from 8 to 9. Although the emission wavelength increases very slightly over the same series, the net effect on the Stokes shift is a significant decrease with increasing electron donating capacity of the substituent.
(§1) Comparison of the fluorescent properties^34 of the four different parent fluorogens (and their corresponding thiol adducts) studied herein (see Table 2) substantiates our retention of compounds 13 and 20 as candidates for further tests with proteins.
The following material were obtained from Aldrich and were used without further purification: 2-hydroxy-5-nitrobenzaldehyde, N-acetylglycine, maleic anhydride, p-nitrophenylacetic acid, L-aspartic acid dimethyl ester hydrochloride, citraconic anhydride, dimethyl L-tartrate, dimethyl malonate. All reactions were carried out under an atmosphere of dry nitrogen employing conventional bench-top techniques except for reactions with thiols. ^13C-NMR and ^1H-NMR spectra were recorded on AMXR400 or AMX300 spectrometers and were referenced to the residual proton or ^13C signal of the solvent. Mass spectra were determined by FAB+ ionization on an AutoSpecQ spectrometer at the Regional Mass Spectrometry Centre at the Université de Montréal. Infrared spectra were recorded on a Perkin-Elmer (FTIR) spectrometer. Melting points (uncorrected) were determined on a Unimelt Tomas-Hoover or on a Gallenkamp meting point apparatus. Fluorescence spectra were recorded using a Varian Cary Eclipse fluorimeter and gel electrophoresis was carried out on a SpectraPhoresis 100 apparatus.

[2] = Product study of reaction with 3-mercaptopropionic acid by capillary electrophoresis; conditions: up to 2 equivalents of 3-mercaptopropionic acid; CE
Text: Product studies carried out for the reaction of 4 with simple thiols support the hypothesis that the second addition reaction is faster than the first. Initial experiments involved the addition of ethanethiol to 4 and attempts to separate and characterize the dithiolated and monothiolated adducts. However, no significant peak corresponding to the putative monothiolated adduct could be isolated by flash chromatography, so an experiment was designed to facilitate the separation of the monothiolated and dithiolated adducts by capillary electrophoresis (CE, see Experimental Section). By using 3-mercaptopropionic acid as a simple thiol, we ensured that at basic pH, any monothiolated adduct would singly negatively charged, due to ionization of the carboxylate group, whereas the dithiolated product would be doubly negatively charged.
After reaction of 1 mM 1 with 0.25-3 mM 3-mercaptopropionic acid in DMSO-H2O 1.9 overnight, the fluorescence of the reaction mixture was measured. To this mixture was then added 3 equivalents of ethanethiol, converting all unreacted and monothiolated adducts to dithiolated adducts. […] Their relative concentrations were calculated by the areas under their peaks, recorded UV detection at 370 nm. […]

[3] = Temperature dependence of first-order rate constants of ethanethiol addition; conditions: 0.1 mM fluorogen, 2.0 mM ethanethiol in DMF, 10-40° C.
Procedure: First-order rate constants for the reaction of 0.1 mM 13 with 2.0 mM ethanethiol in DMF were also measured as a function of temperature from 10-40° C. Over this temperature range, the observed rate constants increased slightly with temperature, but varied by less than a factor of 2, and evaporation of ethanethiol was problematic at 40° C. For these reasons, precise quantitative analysis of the effect of temperature (for example, in the form of an Eyring plot) was not possible.

[4] = Thiol addition reaction of fluorogens with ethanethiol (fluorescence increase)
Text: The fluorescence spectra obtained upon excitation at 350 nm before and after the reaction of ethanethiol with compound 4 are shown in FIG. 1.
Based on this observation, we reasoned that compounds 4 and 13 should also react efficiently with one equivalent of a dithiol bearing two sulfhydryl groups separated by an appropriate distance. […] That is, after fluorogen 4 undergoes an initial addition reaction with BMMB, the second addition reaction with the pendant sulfhydryl group of BMMB is intramolecular and presumably much faster (Scheme 5).
[formula] […] In the case of dithiol addition, this second addition reaction with a sulfhydryl group would be intramolecular, and presumably even faster.

mCys-Fos = target: T1, mCys-Fos (Homo sapiens, UniProt P01100, C204S); assay: Protein labeling in vitro, SDS-PAGE with UV illumination; format: biochemical; conditions: 0.242 mM protein, 0.5 mM of 20 or 0.05 mM of 13, 25° C. overnight
T1 construct: the C99S mutant of a fragment of Fos; His-tag (N); made in house; host or cells: XL1-blue E. coli
T1 sequence (P01100 118-211 C204S limits assumed): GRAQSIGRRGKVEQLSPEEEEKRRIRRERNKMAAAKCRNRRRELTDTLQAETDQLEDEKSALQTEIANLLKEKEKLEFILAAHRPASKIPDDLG
Procedure: (§2) As mentioned in the introduction, an α-helical protein was designed to bear two cysteine residues, separated by a distance complementary to that between the maleimide groups of the designated fluorogen. The protein chosen as a starting point for this design was the C99S mutant of a fragment of Fos,^21 a known α-helical protein^22 whose recombinant expression has been published.^23 Site-directed mutagenesis was then performed^20,35 to introduce a cysteine residue (L56C), separated by two turns of the α-helical motif from the native Cys49, positioning the protein's only two thiol groups approximately 10 Å apart.^36 Although at higher concentrations, Fos is known to form a homodimer,^22 the distance between the intermolecular cysteine residues in this putative homodimer would render their reaction with a single fluorogen molecule impossible. […]
(§3) Purified mCys-Fos and diCys-Fos were then tested in vitro for their ability to react with fluorogens 13 and 20. After incubation of 0.242 mM protein with 0.5 mM of 20 or 0.05 mM of 13 at 25° C. overnight, glycerol was added and the reaction mixtures were analyzed by SDS-PAGE using UV illumination and then Coomassie blue staining. […]

diCys-Fos = diCys-Fos (Homo sapiens, UniProt P01100, C204S/L161C); assay: as above; format: biochemical; set-up: the C99S mutant of a fragment of Fos; conditions: 0.242 mM protein, 0.5 mM of 20 or 0.05 mM of 13, 25° C. overnight
Sequence of diCys-Fos (P01100 118-211 L161C/C204S limits assumed): as the sequence (P01100 118-211 C204S limits assumed) above, with L44C counted along it
Procedure: as §2, §3

Solubility = format: physicochemical
Procedure: as §1
Finally, we wished to determine if fluorogens such as 13 and 20 were cytotoxic. […] Furthermore, even at 300 μM 20, the limit of its solubility in cell culture, 70% of COS cells were still viable (FIG. 8). […] The convenience of the application of this fluorescent labeling method is obvious from the low cytoxocity of 20, even at concentrations 30 times greater than those necessary for efficient labeling.

[5] = in DMSO, ratio of areas under fluorescence emission bands of fluorogen and its thiol adduct

In the case of `O=C1C=CC(=O)N1c1ccc2oc(=O)c(N3C(=O)C=CC3=O)cc2c1` [Compound 4, 3,6-Dimaleimidylchromen-2-one], the melting point is reported as > 296 °C (dec.).
For `COC(=O)C1=CC(=O)N(c2ccc3oc(=O)c(N4C(=O)C=C(C(=O)OC)C4=O)cc3c2)C1=O` [Compound 5, 3,6-Di-(3′-methoxycarbonylmaleimidyl)chromen-2-one], the Stokes shift ([1]; in DMSO) was 115 nm, the “λem (emission band)” value ([1]; in DMSO) was 360-600 nm and the “λem, wavelength corresponding to center of Full Width at Half Maximum of emission band” value (“λem, wavelength corresponding to center” for short) ([1]; in DMSO) was 447 nm. For the same molecule, the λexc ([1]; in DMSO) was 332 nm and the “IF Ratio” value [1, 5] was 2.7.
In the case of `CC1=CC(=O)N(c2ccc3oc(=O)c(N4C(=O)C=C(C)C4=O)cc3c2)C1=O` [Compound 6, 3,6-Di-(3′-methylmaleimidyl)chromen-2-one], the Stokes shift ([1]; in DMSO) is reported as 82 nm, the “λem (emission band)” value ([1]; in DMSO) is reported as 370-600 nm and the “λem, wavelength corresponding to center” value ([1]; in DMSO) is reported as 455 nm. The λexc ([1]; in DMSO) was 373 nm and the “IF Ratio” value [1, 5] was 3.6.
For `CCSC1C(=O)N(c2ccc3oc(=O)c(N4C(=O)C(SCC)C(C(=O)OC)C4=O)cc3c2)C(=O)C1C(=O)OC` (centres unmarked) [Compound 8, 3,6-Di-(3′-ethylthio-4′-methoxycarbonylsuccinimidyl)chromen-2-one], the Stokes shift ([1]; in DMSO) was 121 nm and the λexc ([1]; in DMSO) was 336 nm.
Work on `CCSC1C(=O)N(c2ccc3oc(=O)c(N4C(=O)C(C)C(SCC)C4=O)cc3c2)C(=O)C1C` (centres unmarked) [Compound 9, 3,6-Di-(3′-ethylthio-4′-methylsuccinimidyl)chromen-2-one] yielded a Stokes shift ([1]; in DMSO) of 82 nm and a λexc ([1]; in DMSO) of 373 nm.
In the case of `O=C1C=CC(=O)N1c1ccc(-c2cc3cc(N4C(=O)C=CC4=O)ccc3oc2=O)cc1` [Compound 13, 6-Maleimidyl-3-p-maleimidylphenylchromen-2-one], the Stokes shift ([1]; 10:90 DMSO: water) is reported as 76 nm, the “λem (emission band)” value ([1]; 10:90 DMSO: water) is reported as 400-550 nm and the “λem, wavelength corresponding to center” value ([1]; 10:90 DMSO: water) is reported as 460 nm. The λexc ([1]; 10:90 DMSO: water) was 384 nm, the “φ (quantum yield)” value ([1]; 10:90 DMSO: water) was 0.006 and the “IF Ratio” value ([1]; 10:90 DMSO: water, ratio of areas under emission bands of fluorogen and thiol adduct) was 5.2. For the same molecule, the “formation of monothiolated adduct” value [2] was “no monothiolated product was detectable”, the “variation of observed first-order rate constants with temperature (factor)” value [3] was under 2 and the “change in fluorescence on addition of ethanethiol” value ([4]; 3 mM ethanethiol, 1 mM fluorogen, 9:1 H2O:DMSO, over 3 hours) was “marked increase in fluorescence”. For the same molecule, the “equivalents of thiol at which fluorescence plateau was reached” value ([4]; ethanethiol) was about 2.2 equivalents, the “fluorescent labeling of mCys-Fos” value (mCys-Fos) was “is not” and the “fluorescent labeling of diCys-Fos” value (diCys-Fos) was “efficiently fluorescently labeled”.
With `CCSC1CC(=O)N(c2ccc(-c3cc4cc(N5C(=O)CC(SCC)C5=O)ccc4oc3=O)cc2)C1=O` (centres unmarked) [Compound 14, 6-(3′-Ethylthiosuccinimidyl)-3-p-(3′-ethylthiosuccinimidyl)phenylchromen-2-one] the Stokes shift ([1]; 10:90 DMSO: water) was 76 nm, the λexc ([1]; 10:90 DMSO: water) was 384 nm and the “φ (quantum yield)” value ([1]; 10:90 DMSO: water) was 0.223.
With `O=C1C=CC(=O)N1c1cccc2c(N3C(=O)C=CC3=O)cccc12` [Compound 15, 1,5-Dimaleimidylnaphthalene] the Stokes shift ([1]; neat DMSO) was 63 nm, the “λem (emission band)” value ([1]; neat DMSO) was 340-500 nm and the “λem, wavelength corresponding to center” value ([1]; neat DMSO) was 391 nm. The λexc ([1]; neat DMSO) was 328 nm, the “φ (quantum yield)” value ([1]; neat DMSO) was 1.70 × 10^−3 and the “IF Ratio” value ([1]; neat DMSO, ratio of areas under emission bands of fluorogen and thiol adduct) was 31. The “solubility in water / aqueous DMSO” value (Solubility) was “insoluble in water, even upon the addition of up to 10% DMSO”.
With `CCSC1CC(=O)N(c2cc3c4c(cc(N5C(=O)CC(SCC)C5=O)cc4c2)C(=O)N([C@@H](CC(=O)OC)C(=O)OC)C3=O)C1=O` (stereo partly drawn) [Compound 21, N-(3,6-Di(3′-ethylthiosuccinimidyl)-1,8-naphthalyl)-L-aspartic acid dimethyl ester] the Stokes shift ([1]; 10:90 DMSO: water) was 67 nm, the λexc ([1]; 10:90 DMSO: water) was 511 nm and the “fluorescence of ethanethiol adduct relative to parent fluorogen (factor)” value ([1]; adduct vs parent fluorogen (16 in DMSO)) was 8.5. The “detectability of adduct fluorescence” value ([1]; ethanethiol adduct) was “easily detected at micromolar concentrations”.
